Laboratory results: patent US7138504B2, “Reagents and methods for mycophenolic acid immunoassay” (Microgenics Corporation, priority 2004, dated 2006)

Legend:
[1] = system: antibody raised against MPAlc; test: CEDIA MPA assay specificity (cross-reactivity) in MPA-free plasma; type: binding, goats
Protocol: “Cross reactivity” is determined in a quantitative immunoassay by establishing a standard curve using known dilutions of MPA. The standard curve is then used to calculate the apparent concentration of the interfering substance present in various known amounts in samples assayed under substantially similar conditions. The percent (%) cross-reactivity is the measured concentration divided by the tested concentration multiplied by 100%. […] If MPA is present in the sample, it binds to the antibody, leaving the ED portion of the ED-containing conjugate free to restore enzyme activity upon association with enzyme acceptor (EA) fragments in the assay reaction mixture. The active enzyme is then capable of producing a quantifiable reaction product when exposed to appropriate substrate. If MPA is not present in the sample, the antibody binds to the ED-containing conjugate inhibiting association of the ED fragments with the EA fragments, thus inhibiting restoration of enzyme activity. The amount of reaction product and resultant absorbance change are proportional to the amount of MPA in the specimen. […] (active metabolite), were added to MPA-free plasma for measuring cross-reactivity. The estimated cross-reactivity of each compound was calculated using the formula: (measured concentration-control concentration)×100% concentration tested Additionally, commonly co-prescribed and over-the-counter (OTC) drugs were tested in MPA-free plasma for cross-reactivity in the […] assay.

[2] = system: inosine-monophosphate dehydrogenase (IMPDH); details: cited from earlier work

## COc1c(C)c2c(c(O[C@@H]3O[C@H](C(=O)O)[C@@H](O)[C@H](O)[C@H]3O)c1C/C=C(\C)CCC(=O)O)C(=O)OC2 [7-O-Glucuronide MPA]
[1]; concentration 1000 μg/ml
  % Cross-Reactivity: 0.0%

## COc1c(C)c2c(c(O)c1C/C=C(\C)CCC(=O)O[C@@H]1O[C@H](C(=O)O)[C@@H](O)[C@H](O)[C@H]1O)C(=O)OC2 [Acyl glucuronide MPA]
[2]
  inhibition of IMPDH: activity similar to that of MPA
[1]; concentration 10 μg/ml
  % Cross-Reactivity: 192%

## COc1c(C)c2c(c(O)c1C/C=C(\C)CCC(=O)O)C(=O)OC2 [MPA, Mycophenolic acid]
[2]
  inhibition of IMPDH: potent and specific inhibitor

## COc1c(C)c2c(c(O)c1C/C=C(\C)CCC(=O)OCCN1CCOCC1)C(=O)OC2 [Mycophenolate mofetil, 2-morpholinoethyl(E)-6-(1,3-dihydro-4-hydroxy-6-methoxy-7-methyl-3-oxo-5-isobenzofuranyl)-4-methyl-4-hexenoate]
[1]; concentration 926 μg/ml
  % Cross-Reactivity: 123%
